# Several values for one entry are separate records, joined by “and”; a condition that tells them apart may be missing. Equal entries are not always repeated.
# Assays:
# platelet aggregation = assay: Whole blood platelet aggregation ex vivo (aggregometer); assay type: in vivo, rat; conditions: for Amplitude (platelet aggregation induced ex vivo) / Velocity (platelet aggregation induced ex vivo): 5 mg/kg; for Amplitude (platelet aggregation) / Velocity (platelet aggregation): rat, after laser firings, glycine betaine 5 mg/kg, acetylsalicylic acid 100 mg/kg, heparin 2 mg/kg
# Description: The aggregation is made in accordance to the methods of Cardinal & Flower. Pharmacol. Method. 1980, and to American Journal of Clinical Pathology, 1989; 92: 676-679, Sureney. J D. Whole Blood aggregometry. After a keeping period of 8 days, the rats are subjected to a fasting for 12 hours. […] The rats are then anaesthetised with sodium Thiopental administered at a dose of 200 mg/Kg and the blood samples are taken by intracardiac puncture on a trisodium citrate solution (1 volume of solution at 3.8% citrate for 9 volumes of blood).
# [1] = system: heparin-induced bleeding in rat; assay: Tail cut bleeding test in heparinized rat; assay type: in vivo; conditions: for IHT (hemorrhage time), Mean / IHT (hemorrhage time), individual rats: Example 35, betaine 10 mg/kg and/or heparin 5 mg/kg s.c. 1 hour prior to testing
# Description: This example determined the effect of betaine on hemorrhage time in a heparinized rat. Forty male Wistar rats were purchased from Charles River, France and were acclimated for one week prior to testing. Each animal was weighed prior to testing (weights ranged from 225 to 275 g, mean weight=245 g) and the group of 40 rats was further divided into 4 groups of 10 rats each. One group acted as a control group and each rat in this group received a subcutaneous injection of saline 1 hour prior to testing. The second group received a 10 mg/kg subcutaneous injection of betaine 1 hour prior to testing. The third group received a 5 mg/kg subcutaneous injection of heparin 1 hour prior to testing and the last group received a subcutaneous injection consisting of 5 mg/kg heparin plus 10 mg/kg betaine 1 hour prior to testing. The rats were anesthetized by intramuscular injection of Nesdonal (200 mg/kg). The products were then injected subcutaneously in the abdomen one hour before the tail cut induced bleeding test. For the group receiving the combined heparin/betaine (group 4) injections, the heparin and betaine were injected using different syringes at different sites of administration (left and right sides of the abdomen) in order to avoid any direct reactions between the two substances.
# The tail of the anaesthetized rat was dipped for 5 minutes in a water bath at 37° C. in order to induce a dilation of the peripheral vessels. The tail was then removed from the water bath and sectioned at 10-15 mm from the extremity. The chronometer was then started. The IHT is defined as the time, in seconds, between the tail section and the end of the hemorrhage or bleeding. The end of hemorrhage is defined as the moment when the last drop of blood is collected from the tail and when no other drop is observed during 180 seconds. The amount of blood was estimated by visual inspection. […] Betaine has no significant effect on bleeding time and combined use of betaine with heparin almost restored the bleeding time to normal, thereby indicating an antidote-like activity of betaine against heparin.
# This example investigated the effect of delayed betaine administration on active heparin-induced bleeding (antidote type administration) in a rat. Twelve male Wistar rats were purchased from Charles River, France and were acclimated for one week prior to testing. Each rat was weighed prior to testing (weights ranged from 245-280 g with a mean of 260 g) and the group of twelve was divided into 3 subgroups. Three rats were in the control group which received two saline injections, one at T0, one at T0+45 minutes. Three rats were in the […] group which received one injection of heparin (5 mg/kg) at T0. Six rats were in the antidote group which received a heparin injection (5 mg/kg) at T0, and a betaine injection (10 mg/kg) at T0+45 minutes. […] However, at the end of the bleeding experiments, blood was sampled by intracardiac puncture on Na-citrate (3.8%, 1:10) and plasmas of the collected blood samples were kept at −20° C. for future biological assays. Chemical products were also identical.
# This example investigated the effect of delayed betaine administration in an antidote type administration inhibited the bleeding time and volume of blood loss induced by heparin treatment in a rat. Twenty male Wistar rats were purchased from Charles River, France and were acclimated for one week prior to the tests. Each rat was weighed prior to testing (weights ranged from 240-340 g with a mean weight of 275 g) and divided into 2 groups of 10 animals each. One group received an injection of heparin (5 mg/kg) at T0. The second group received a heparin injection (5 mg/kg) at T0, and a betaine injection (10 mg/kg) at T0+30 minutes. Both groups were subjected to a bleeding test at T0+60 minutes. The testing was performed using the previously described methodology with slight modifications. The tails were sectioned at 5-8 mm from the extremity. […]
# [2] = system: coagulation (Fibrinogen, APTT, Prothrombin Time, Anti-Xa activity); assay: Plasma fibrinogen, APTT, prothrombin time and anti-Xa in heparinized rat; assay type: in vivo; conditions: Example 37
# Text: This example investigated the effect of delayed betaine administration in an antidote type administration inhibited the bleeding time and volume of blood loss induced by heparin treatment in a rat. Twenty male Wistar rats were purchased from Charles River, France and were acclimated for one week prior to the tests. Each rat was weighed prior to testing (weights ranged from 240-340 g with a mean weight of 275 g) and divided into 2 groups of 10 animals each. One group received an injection of heparin (5 mg/kg) at T0. The second group received a heparin injection (5 mg/kg) at T0, and a betaine injection (10 mg/kg) at T0+30 minutes. Both groups were subjected to a bleeding test at T0+60 minutes. The testing was performed using the previously described methodology with slight modifications. The tails were sectioned at 5-8 mm from the extremity. After transection, the proximal end of the tail was placed in a tube and blood was permitted to drip freely into a reservoir of 3.8% citrate solution (1 ml) until bleeding stopped. Blood loss volumes were then determined using a 1000 μl pipette. At the end of the experiments, before euthanasia, blood was sampled by intracardiac puncture on Na-citrate (3.8%, 1:9) and centrifuged at 4000 rpm/min for 20 minutes in order to obtain Poor Platelet Plasma (PPP). Fibrinogen, APTT, Prothrombin Time (Quick) and Anti-Xa activity were determined using an Automatic Coagulation Laboratory ACL 200 (Instrumentation Laboratory, France). […] Betaine efficiency to reduce bleeding times was confirmed. The effect on the haemorrhage was also confirmed since there was a very significant reduction of the blood loss volumes when compared to the heparin group. The delayed administration of betaine after heparin treatment, designed to mimic an antidote mode of administration, almost restored the bleeding times and the volumes of blood loss in the 10 betaine-treated animals to normal.
# [3] = system: arterial thrombosis induced by laser beam in the mesenteric microcirculation of the rat; assay: Laser-induced thrombosis in the mesenteric microcirculation; assay type: in vivo; conditions: oral 50 mg/kg
# [4] = Group I: injected 1 hour before
# [5] = Group II: injected 2 hours before
# [6] = Group III: injected 3 hours before
# [7] = Group IV: injected 4 hours before
# [8] = betaine 10 mg/kg 30 minutes after heparin 5 mg/kg
# [9] = Example 36, heparin 5 mg/kg at T0, betaine 10 mg/kg at T0+45 minutes, bleeding test at T0+75 minutes
# [10] = Example 37, heparin 5 mg/kg at T0, betaine 10 mg/kg at T0+30 minutes, test at T0+60 minutes
# [11] = heparin 5 mg/kg at T0, betaine 10 mg/kg at T0+30 minutes
molecule,measurement,setting,value
C[N+](C)(C)CC(=O)O [Glycine betaine],Amplitude (platelet aggregation induced ex vivo),platelet aggregation; [4],11.33 ± 3.08 Ohms
same,Velocity (platelet aggregation induced ex vivo),platelet aggregation; [4],8.2 ± 0.2 ohm/minute
same,Amplitude (platelet aggregation induced ex vivo),platelet aggregation; [5],13.2 ± 3.5 Ohms
same,Velocity (platelet aggregation induced ex vivo),platelet aggregation; [5],9.3 ± 1.8 ohm/minute
same,Amplitude (platelet aggregation induced ex vivo),platelet aggregation; [6],12.7 ± 4.1 Ohms
same,Velocity (platelet aggregation induced ex vivo),platelet aggregation; [6],8.7 ± 1.3 ohm/minute
same,Amplitude (platelet aggregation induced ex vivo),platelet aggregation; [7],13 ± 2.8 Ohms
same,Velocity (platelet aggregation induced ex vivo),platelet aggregation; [7],8.7 ± 1.15 ohm/minute
same,Amplitude (platelet aggregation),platelet aggregation,0.66 ± 1.15 ohms
same,Velocity (platelet aggregation),platelet aggregation,1.66 ± 1.15 ohms/min
same,"IHT (hemorrhage time), Mean",[1],169.9 s
same,"IHT (hemorrhage time), individual rats",[1],166 s and 180 s and 162 s and 173 s and 194 s and 203 s and 159 s and 142 s and 123 s and 197 s
same,Volume of blood loss by visual inspection,"[1]; Example 36, antidote group versus heparin group",significantly reduced
same,APTT prolongation despite betaine administration,[2]; [8],up to 6 ×
same,Animals with normalized Prothrombin times,[2]; [8],8 out of 10
same,Fibrinogen level change versus heparin,[2]; [8],−10%
same,Fibrinogen level change versus the control,[2]; [8],−23%
same,"Reduction of Anti-Xa activity, antidote group compared to the heparin group",[2]; [8],74%
same,Number of emboles,[3]; 1 hour,0 +/− 0
same,Embolisation time,[3]; 48 hours,2 ± 0 min
same,Number of laser firing,[3]; 48 hours,2.33 +/− 0.57
Heparin,Amplitude (platelet aggregation),platelet aggregation,4.33 ± 0.57 ohms
same,Velocity (platelet aggregation),platelet aggregation,2.66 ± 0.50 ohms/min
same,"IHT (hemorrhage time), Mean",[1],690.9 s
same,"IHT (hemorrhage time), individual rats",[1],679 s and 767 s and 680 s and 734 s and 702 s and 663 s and 735 s and 567 s
same,"Bleeding Time, individual rats",[1]; [9],658 s and 597 s and 533 s
same,"Bleeding time, Mean",[1]; [9],596 s
same,"Bleeding Time, individual rats",[1]; [10],400 s and 345 s and 405 s and 370 s and 290 s and 265 s and 350 s and 300 s and 315 s and 275 s
same,"Bleeding time, Mean",[1]; [10],331.5 s
same,"Volume (blood loss), Mean",[1]; [10],1294 µL
same,"Volume (blood loss), individual rats",[1]; [10],1650 μl and 1300 μl (2×) and 1800 μl and 1380 μl and 1200 μl and 940 μl and 1140 μl and 1130 μl and 1100 μl
same,"APTT, Mean",[2]; [11],>180 s
same,"APTT, individual rats",[2]; [11],>180 s
same,"Anti-Xa, Mean",[2]; [11],1.37 IU/ml
same,"Anti-Xa, individual rats",[2]; [11],1.35 IU/ml (2×) and 1.38 IU/ml (2×) and 1.37 IU/ml (2×) and 1.34 IU/ml and 1.41 IU/ml and 1.39 IU/ml (2×)
same,"Fibrinogen, Mean",[2]; [11],1.82 g/L
same,"Fibrinogen, individual rats",[2]; [11],2.15 g/L and 1.77 g/L and 2.1 g/L and 1.53 g/L and 1.62 g/L and 2.0 g/L and 1.55 g/L and 1.67 g/L and 1.57 g/L and 2.2 g/L
same,"Quick (Prothrombin Time), Mean",[2]; [11],61.07 s
same,"Quick (Prothrombin Time), individual rats",[2]; [11],52.3 s and 57.4 s and 55.3 s and 66.2 s and 66.0 s and 59.6 s and 64.6 s and 67.2 s and 62.2 s and 59.9 s

# — patent US7608640B2, “Glycine betaine and its use” (priority 2001, dated 2009)
